According to patent publication US20190336460A1, “C[…] ACID OR PHARMACEUTICALLY ACCEPTABLE SALT THEREOF AS ACTIVE INGREDIENT FOR PREVENTING OR TREATING OBESITY OR METABOLIC SYNDROMES CAUSED BY OBESITY” (KOREA FOOD RESEARCH INSTITUTE, priority 2016, published 2019):
Values joined by “and” are separate entries in the source; they are usually repeats but may differ in a detail not shown here. Equal entries are not always repeated.

Key:
[1] = tested on: high-fat diet-induced obesity experimental animals (C57BL/6J mice); experiment: Body weight change in high-fat diet-induced obesity mice orally given organic acid salts; type: in vivo, mouse; settings: for average body weight after 13 weeks of rearing / reduction in body weight gain compared with the high-fat diet control group: C57BL/6J mice, high-fat diet 13 weeks, oral once a day; for average body weight after 13 weeks of rearing: 10 mmol (2 μg/g bodyweight); for reduction in body weight gain compared with the high-fat diet control group: 10 mmol
Protocol: (§1) In the present experiment, five-week-old C57BL/6J mice were purchased from Saeron Bio (Uiwang, Korea), and acclimated for 1 week before use in the experiment. The rearing room was controlled to have a temperature of 20±2° C., a humidity of 55±10%, and a light/darkness cycle of 12 hours during the experimental period. The experimental animals were divided into 6 groups according to the randomized block design, after 1-week of normal diet. The experimental groups were classified into Group A (normal diet group; n=10), Group B (high-fat diet control group; n=10), Group C (high-fat diet+sodium formate 10 mmol; n=9), Group D (high-fat diet+sodium butyrate 10 mmol; n=9), Group E (high-fat diet+sodium propionate 10 mmol; n=8), and Group F (high-fat diet+sodium acetate 10 mmol; n=4).
(§2) Water and feed were freely accessible. Groups A and B were orally administered with physiological saline, and the other groups were orally administered with corresponding organic acids once a day (2 μg/g bodyweight). For the test groups, obesity was induced by a high-fat diet for 13 weeks, and a high-fat diet (D12492; 60% of the calories) purchased from Research Diet (USA) was used in the experiment.
(§3) The body weights of the experimental animals were measured at a fixed time once a week during the experiment. The experimental animals were fasted for 12 hours before sacrifice, and blood was collected from eyes of the experimental animals anesthetized with ether. In order to prevent the coagulation of the blood after collection, the blood was placed in anti-coagulation tubes and left in an ice bath for 20 min. The collected blood samples were centrifuged at 3000 rpm for 10 min to separate serum therefrom, and refrigerated until use in the experiment. Thereafter, the kit through an enzymatic method was purchased from Young Dong Diagnostics (Yong-In, Korea) to measure the levels of blood lipids (triglyceride, cholesterol, HDL-Cholesterol, and LDL-Cholesterol). The organs were extracted, washed with physiological saline, dehydrated with a filter bed, and then weighed.
The high-fat diet-induced obesity experimental animals (C57BL/6J mice) were orally administered with each 10 mmol corresponding organic acid for 13 weeks, and the weights of the mice were measured once a week during the rearing.

[2] = tested on: high-fat diet-induced obesity experimental animals (C57BL/6J mice); experiment: Organ weights (fat tissues, prostate, liver, spleen) in high-fat diet-induced obesity mice; type: in vivo, mouse; settings: high-fat diet 13 weeks, 10 mmol; for Brown fat weight / Epididymal fat weight / Kidney fat weight / Subcutaneous fat weight: oral once a day, mean ± S.D.
Protocol: as §1, §2, §3
The kidney fat, epididymal fat, subcutaneous fat, brown fat, prostate, liver, and spleen were extracted immediately after blood collection from the control and experimental groups, and washed with physiological saline, subjected to surface moisture removal, and then weighed.

[3] = tested on: high-fat diet-induced obesity experimental animals (C57BL/6J mice); experiment: Blood analysis: serum lipid concentrations in high-fat diet-induced obesity mice; type: in vivo, mouse; settings: for serum Cholesterol / serum HDL / serum LDL / serum Triglyceride / content of cholesterol, reduction compared with the high-fat diet control group / serum triglyceride, lower value compared with the high-fat diet control group: C57BL/6J mice, high-fat diet 13 weeks, 10 mmol; for serum Cholesterol / serum HDL / serum LDL / serum Triglyceride: oral once a day, 12 h fasted, mean ± S.D.; for content of cholesterol, reduction compared with the high-fat diet control group / serum triglyceride, lower value compared with the high-fat diet control group: oral; for LDL-cholesterol content compared with the high-fat diet control group (in words): mouse, in vivo
Protocol: as §1, §2, §3

[4] = tested on: epididymal fat cells; experiment: Size measurement of epididymal fat cells (H&E staining, Image J); type: in vivo, mouse; settings: C57BL/6J mice, high-fat diet 13 weeks, oral, 10 mmol; compared among groups and with high-fat diet control group
Protocol: as §1, §2
The immobilized tissue was sliced into 18 μm using a cryostat microtome, and fat cells were stained by hematoxylin and eosin (H&E) fat staining. The fat cells were decolorized using 60% isopropanol after the staining, and then imaged using a digital camera under a microscope. For size analysis of fat cells, the area of fat cells was measured using Image J Software (National Institute of Health, Maryland, USA).

[5] = administered orally; cited from earlier work
[6] = oral, no significant difference

Row | Structure (SMILES) | average body weight after 13 weeks of rearing [1] | Brown fat weight [2] | Epididymal fat weight [2] | Kidney fat weight [2] | Subcutaneous fat weight [2] | weight of epididymal fat, lower value compared with the high-fat diet control group ([2]; oral) | serum Cholesterol [3] | serum HDL [3] | serum LDL [3] | serum Triglyceride [3] | content of cholesterol, reduction compared with the high-fat diet control group [3] | epididymal fat cell size (in words) [4] | reduction in body weight gain compared with the high-fat diet control group [1] | weight of subcutaneous fat, lower value compared with the high-fat diet control group ([2]; oral) | LDL-cholesterol content compared with the high-fat diet control group (in words) [3] | serum triglyceride, lower value compared with the high-fat diet control group [3] | also measured
1 | CC(=O)[O-].[Na+] [acetate, sodium acetate] | 41.08 g | 0.11 ± 0.03^A g | 2.31 ± 0.45^AB g | 0.66 g and 0.81 ± 0.07^BAB g | 1.74 ± 0.31^A g | 7.6% | 114.86 ± 3.76^A mg/dl | 61.09 ± 2.21^A mg/dl | 32.34 ± 1.44^A mg/dl | 155.21±5.43 mg/dl and 155.21 ± 5.43^A mg/dl | 7.8% | smaller in that order of butyrate, propionate, formate, and acetate |  |  |  |  | body weight compared with the high-fat diet control group (in words) ([1]; after 13 weeks, p<0.05): no significant difference; weight of brown fat, higher value compared with the high-fat diet control group [2, 6]: 22.22%; weight of subcutaneous fat, higher value compared with the high-fat diet control group [2, 6]: 10.13%; serum triglyceride compared with the high-fat diet control group (in words) ([3]; p<0.05): significantly higher value
2 | CCCC(=O)[O-].[Na+] [butyrate, sodium butyrate] | 31.25 g | 0.09 ± 0.04^A g | 2.00 ± 0.29^B g | 0.71 ± 0.12^BC g | 1.16 g and 1.16 ± 0.25^B g | 20% | 95.63 ± 3.87^B mg/dl | 55.99 ± 0.43^B mg/dl | 24.95 ± 1.23^D mg/dl | 128.01±14.72 mg/dl and 128.01 ± 14.72^B mg/dl |  | smaller in that order of butyrate, propionate, formate, and acetate | 15.6% | 26.58% | lower values |  | 
3 | CCC(=O)[O-].[Na+] [propionate, sodium propionate] | 30.05 g | 0.09 ± 0.02^A g | 1.91 ± 0.44^B g | 0.71 g and 0.66 ± 0.09^C g | 1.07 g and 1.07 ± 0.24^B g | 23.6% | 95.63 ± 5.41^B mg/dl | 50.12 ± 1.69^C mg/dl | 30.41 ± 0.51^B mg/dl | 120.68±10.07 mg/dl and 120.68 ± 10.07^B mg/dl |  | smaller in that order of butyrate, propionate, formate, and acetate | 18.3% | 32.27% |  | 7.2% | 
4 | O=C[O-].[Na+] [formate, sodium formate] | 36.78 g | 0.09 ± 0.03^A g | 2.01 ± 0.24^B g | 0.72 g and 0.72 ± 0.08^BC g | 1.08 g and 1.08 ± 0.21^B g | 19.6% | 79.00 ± 2.81^C mg/dl | 41.51 ± 3.56^D mg/dl | 26.24 ± 0.29^CD mg/dl | 99.48±14.18 mg/dl and 99.48 ± 14.18^C mg/dl | 36.6% | smaller in that order of butyrate, propionate, formate, and acetate | 10.4% | 31.16% | lower values | 23.54% | oral amount causing no side effect in the human body [5]: up to 10 g
